Reference: publication PMC9925730, “Controlled sequential in situ self-assembly and disassembly of a fluorogenic cisplatin prodrug for cancer theranostics” (Nature Communications, 2023)
Values joined by “and” are separate entries in the source; they are usually repeats but may differ in a detail not shown here. Equal values may be shown once.

Assays:
[1] = General design summary of signals and cytotoxicity (Fig. 1a)
Source text: P-CyPt is designed to (1) offer activatable near-infrared (NIR) FL and PA signals for bimodality imaging through ALP-mediated in situ self-assembly and (2) release CDDP for on-demand therapy via GSH-triggered disassembly (Fig. 1a). […] After systemic administration, P-CyPt as a small molecule can extravasate and penetrate deeply into tumor tissues (Fig. 1b). In tumor tissues that are membrane-bound ALP positive, rapid dephosphorylation of P-CyPt by the membrane-bound ALP generates CyPt, switching on NIR FL (λem = 710 nm) and PA signals (λ = 700 nm); moreover, CyPt with increased hydrophobicity is susceptible to self-assembly into Pt(IV) nanoparticles (Pt^IVNPs), which turns on another PA signal (λ = 750 nm) resulting from the aggregation-caused bathochromic shift. The on-site formed Pt^IVNPs can anchor on the cell membranes, which attenuate diffusion, prolong retention, and enhance translocation into cells[32],[33]. Within tumor cells, the abundant endogenous GSH can reduce Pt(IV) into Pt(II), producing negatively charged Cy-COOH that promotes NPs disassembly and accelerates release of CDDP intracellularly. This process dramatically raises intracellular CDDP’s concentration while depletes GSH’s level to effectively kill tumor cells. Moreover, the disassembly of Pt^IVNPs into Cy-COOH further increases NIR FL (called as “ON-ON”) as the aggregation-caused quenching (ACQ) effect is eliminated; however, the PA signal at 750 nm is turned off but the PA signal at 700 nm is kept at “ON” state. The sequential switches in NIR FL and PA bimodal imaging signals can allow P-CyPt to reliably monitor the ALP-triggered in situ self-assembly and GSH-driven disassembly process in vivo, facilitating to guide precise chemotherapy of tumors.

s.c. HeLa tumors [2] = experiment: Chemotherapy of s.c. HeLa tumors in vivo; design: species or system mice; conditions: s.c. HeLa, 2.25 mg kg^−1 Pt i.v. on day 0, 3, 6, 9, 12
Method: Sixteen mice with s.c. […] Each experiment was conducted in four mice.

s.c. HeLa tumors [3] = experiment: Biodistribution study of Pt (ICP-OES); format: in vivo, mice
[4] = Body weight of mice with orthotopic HepG2/Luc liver tumors; format: in vivo; conditions: mean of 3, in g (unit assumed)
[5] = Urine and faeces analysis by ICP-OES (Pt element); format: in vivo, mice; design: Pt in urine / Pt in feces: unit not given beside the values
[6] = Urine and faeces analysis by ICP-OES (Pt element); format: in vivo, mice; design: Pt in urine / Pt in feces: unit not given beside the values; remark: listed apart in the source
Method: page 47: determined using ELISA kits according to manufacturer 's protocol. Determination of the blood circulation half-life. […], or CDDP (at a dose of 2.25 mg kg-1 Pt) was i.v. injected into healthy female BALB/c nude mice (6-8 weeks old). […] The collected blood was digested with concentrated HNO3 (65-70%, 2 mL) and HCl (36~38%, 1 mL) at 90 °C overnight. The residues were then diluted with 5 mL 2% HNO3 and 5% HCl solution, and the concentrations of Pt element were determined by ICP-OES, which were further applied to calculate the contents of Pt element in the blood. The plot of the percentage of Pt element remained in the blood versus injection time to yield the pharmacokinetic time. Urine and Faeces analysis. […] Urine and faeces were collected at 2 (for 0-2 h), 4 (for 2-4 h), 8 (for 4- 8 h) and 12 h (for […]), which were diluted in methanol and centrifuged at 3,600 × g for 10 min, followed by filtering via a 0.22 μm syringe filter. The solutions were analyzed by HPLC (660 nm detection) to characterize all the mCy-containing compounds. Using the established standard curves for […] Cy-COOH, the amount of each compound in the urine and faeces could be calculated, which were further applied to determine the percentage of them in the urine and faeces. The data were summarized in Supplementary Tables 5-8. […] Urine and faeces were collected and weighed. The urine and faeces were digested with concentrated HNO3 (65~70%) and HCl (36~38%) at 90 °C for 24 h. The solution was diluted to 5 mL 2% HNO3 and 5% HCl solution, and the concentration of Pt element was measured by ICP-OES, which was further applied to calculate the percentage of Pt in corresponding urine and faeces. The data were summarized in Supplementary Tables 9 and 10. 47

[7] = i.v. 2.25 mg kg-1 Pt, 0-2 h, ICP-OES

In the case of [NH2][Pt]([NH2])([Cl])[Cl] [CDDP, cisplatin], the Cytotoxicity [1] is reported as “High”, the “tumor volume growth on day 21” value (s.c. HeLa tumors [2]) is reported as ~ 15.8 fold and the “organ with the highest ID% g^−1” value (s.c. HeLa tumors [3]; 4 h post i.v. injection) is reported as “kidneys”. The “ID% g^−1 of Pt in tumors” value (s.c. HeLa tumors [3]; s.c. HeLa tumors, 4 h post i.v. (100 μM, 200 μL), ICP-OES) was ~ 3.6%, the “Body weight of mice (Supplementary Fig. 34)” value (from here on “Body weight of mice”) ([4]; time 0 d) was 20.65 and the “Body weight of mice” value ([4]; time 3 d) was 20.2. The “Body weight of mice” value ([4]; time 6 d) was 19.4233, the “Body weight of mice” value ([4]; time 9 d) was 18.65 and the “Body weight of mice” value ([4]; time 12 d) was 17.8733. The “Body weight of mice” value ([4]; time 15 d) was 17.5, the “Percentage of Pt element excreted to the faeces” value (“Percentage … to the faeces” for short) ([5]; 8-12 h) was 2.70 ± 0.44% and the Pt in urine ([5]; Fig.6g, 8-12 h, single mice) was 3.482 and 4.062 and 2.903. The Pt in feces ([5]; Fig.6h, 8-12 h, single mice) was 2.646 and 3.172 and 2.294, the Pt in feces ([5]; feces collected 8-12 h, mouse-2) was 3.172 and the “Percentage … to the faeces” value ([6]; 2-4 h) was 2.60 ± 0.45%. The “Percentage of Pt element excreted to the urine” value (shortened to “Percentage … to the urine”) ([6]; 2-4 h) was 10.94 ± 1.14%, the “Percentage … to the faeces” value ([6]; 4-8 h) was 4.55 ± 0.60% and the “Percentage … to the urine” value ([6]; 4-8 h) was 5.45 ± 0.94%. The “Percentage … to the urine” value ([6]; 8-12 h) was 3.48 ± 0.58%, the Pt in urine ([6]; Fig.6g, 0-2 h, mean of 3 mice) was 15.456 and the Pt in urine ([6]; Fig.6g, 0-2 h, single mice) was 14.877 and 18.189 and 13.302. For the same compound, the Pt in urine ([6]; Fig.6g, 2-4 h, mean of 3 mice) was 10.936, the Pt in urine ([6]; Fig.6g, 2-4 h, single mice) was 10.576 and 12.209 and 10.023 and the Pt in urine ([6]; Fig.6g, 4-8 h, mean of 3 mice) was 5.452. For the same compound, the Pt in urine ([6]; Fig.6g, 4-8 h, single mice) was 5.332 and 6.452 and 4.572, the Pt in urine ([6]; Fig.6g, 8-12 h, mean of 3 mice) was 3.482 and the Pt in feces ([6]; Fig.6h, 0-2 h, mean of 3 mice) was 0.193. For the same compound, the Pt in feces ([6]; Fig.6h, 0-2 h, single mice) was 0.190 and 0.242 and 0.148, the Pt in feces ([6]; Fig.6h, 2-4 h, mean of 3 mice) was 2.596 and the Pt in feces ([6]; Fig.6h, 2-4 h, single mice) was 2.468 and 3.099 and 2.222. The Pt in feces ([6]; Fig.6h, 4-8 h, mean of 3 mice) was 4.548, the Pt in feces ([6]; Fig.6h, 4-8 h, single mice) was 4.452 and 5.187 and 4.005 and the Pt in feces ([6]; Fig.6h, 8-12 h, mean of 3 mice) was 2.704. The “Pt accumulatively cleared (urine + faeces)” value ([6]; during 12 h) was ~ 45.3%, the Pt in feces ([6]; feces collected 0-2 h, mouse-1) was 0.190 and the Pt in feces ([6]; feces collected 0-2 h, mouse-2) was 0.242. For the same compound, the Pt in feces ([6]; feces collected 0-2 h, mouse-3) was 0.148, the Pt in feces ([6]; feces collected 2-4 h, mouse-1) was 2.468 and the Pt in feces ([6]; feces collected 2-4 h, mouse-2) was 3.099. The Pt in feces ([6]; feces collected 2-4 h, mouse-3) was 2.222, the Pt in feces ([6]; feces collected 4-8 h, mouse-1) was 4.452 and the Pt in feces ([6]; feces collected 4-8 h, mouse-2) was 5.187. For the same compound, the Pt in feces ([6]; feces collected 4-8 h, mouse-3) was 4.005, the Pt in feces ([6]; feces collected 8-12 h, mouse-1) was 2.646 and the Pt in feces ([6]; feces collected 8-12 h, mouse-3) was 2.294. The “Percentage … to the faeces” value [6, 7] was 0.19 ± 0.046%, the “Percentage … to the urine” value [6, 7] was 15.46 ± 2.49% and the “Pt in urine, mean” value ([6]; urine collected 0-2 h, mean of 3 mice) was 15.456. It also gave a Pt in urine ([6]; urine collected 0-2 h, mouse-1) of 14.877, a Pt in urine ([6]; urine collected 0-2 h, mouse-2) of 18.189 and a Pt in urine ([6]; urine collected 0-2 h, mouse-3) of 13.302. The “Pt in urine, mean” value ([6]; urine collected 2-4 h, mean of 3 mice) was 10.936, the Pt in urine ([6]; urine collected 2-4 h, mouse-1) was 10.576 and the Pt in urine ([6]; urine collected 2-4 h, mouse-2) was 12.209. The Pt in urine ([6]; urine collected 2-4 h, mouse-3) was 10.023, the “Pt in urine, mean” value ([6]; urine collected 4-8 h, mean of 3 mice) was 5.452 and the Pt in urine ([6]; urine collected 4-8 h, mouse-1) was 5.332. The Pt in urine ([6]; urine collected 4-8 h, mouse-2) was 6.452, the Pt in urine ([6]; urine collected 4-8 h, mouse-3) was 4.572 and the “Pt in urine, mean” value ([6]; urine collected 8-12 h, mean of 3 mice) was 3.482. For the same compound, the Pt in urine ([6]; urine collected 8-12 h, mouse-1) was 3.482, the Pt in urine ([6]; urine collected 8-12 h, mouse-2) was 4.062 and the Pt in urine ([6]; urine collected 8-12 h, mouse-3) was 2.903.
In the case of CC1(C)C(/C=C/C2=C3Oc4cc(O)c(Cl)cc4C=C3CCC2)=[N+](CCCNC(=O)[C@@H](Cc2ccccc2)NC(=O)[C@@H](Cc2ccccc2)NC(=O)CCC(=O)[O][Pt]([NH2])([NH2])([OH])([Cl])[Cl])c2ccccc21 [CyPt], the Cytotoxicity [1] is reported as “Low”, the “FL at 710 nm” value [1] is reported as “High” and the “PA at 700 nm” value [1] is reported as “High”. The “PA at 750 nm” value [1] was “Low”, the “Percentage … to the faeces” value ([5]; 8-12 h) was 3.69 ± 0.77% and the “Percentage … to the faeces” value ([6]; 2-4 h) was 16.51 ± 1.34%. The “Percentage … to the faeces” value ([6]; 4-8 h) was 21.52 ± 1.73% and the “Percentage … to the faeces” value [6, 7] was 0.63 ± 0.21%.
